This is an account of results in publication PMC12025037, “Molecular Basis of Dipeptide Recognition in Drosophila melanogaster Angiotensin I-Converting Enzyme Homologue, AnCE” (Biomolecules, 2025).

Residues, ends and D or L forms follow the SMILES beside them.

One assay has as its system ACE. Further details: method as in doi:10.1007/s00217-013-2014-x. The note with it: inhibition of ACE activity; cited from earlier work.
The target in a further assay is nACE. Details: method as in PMID 25053098. The note with it: cited from earlier work.
The target of the next assay is cACE. Details: method as in PMID 25053098. The note with it: cited from earlier work.
The next assay concerns the target T1, AnCE (Drosophila melanogaster, UniProt Q10714).
T1 construct: made in house; host or cells: Pichia pastoris GS115 (vector pPiC9), purified from the culture supernatant
T1 sequence (Q10714 18-615): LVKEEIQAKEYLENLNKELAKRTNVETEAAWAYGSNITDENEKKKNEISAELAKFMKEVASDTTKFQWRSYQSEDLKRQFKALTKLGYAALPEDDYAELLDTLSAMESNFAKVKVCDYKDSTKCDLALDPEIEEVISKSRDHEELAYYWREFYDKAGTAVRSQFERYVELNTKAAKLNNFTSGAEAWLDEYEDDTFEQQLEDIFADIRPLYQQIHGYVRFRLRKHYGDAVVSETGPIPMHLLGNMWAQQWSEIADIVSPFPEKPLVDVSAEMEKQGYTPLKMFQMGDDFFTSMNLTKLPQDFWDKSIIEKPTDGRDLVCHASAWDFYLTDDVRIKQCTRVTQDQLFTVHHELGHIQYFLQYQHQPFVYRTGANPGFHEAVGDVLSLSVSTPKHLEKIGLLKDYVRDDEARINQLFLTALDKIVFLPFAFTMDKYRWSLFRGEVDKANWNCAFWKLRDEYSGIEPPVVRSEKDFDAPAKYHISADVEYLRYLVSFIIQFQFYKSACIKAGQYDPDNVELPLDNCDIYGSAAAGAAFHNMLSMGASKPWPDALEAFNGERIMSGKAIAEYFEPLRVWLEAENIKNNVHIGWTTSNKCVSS
Put plainly: Inhibition of AnCE activity, fluorogenic Abz-FRK(Dnp)-P substrate assay. The note with it: for IC50: AnCE 25 ng, substrate Abz-FRK(Dnp)-P, pH 7.5, 20 °C, 10 min pre-incubation with inhibitor; for Ki: AnCE. The class given is biochemical. Here is the method:
Enzyme assays were performed using the internally quenched fluorogenic peptide Abz-FRK(Dnp)-P (Enzo Life Sciences Ltd., Exeter, UK) as a substrate for 25 ng of AnCE in 200 µL of 100 mM HEPES buffer pH 7.5 with 50 mM NaCl and 10 µM ZnCl2. The reaction was started by adding 2 µL of 5 mM Abz-FRK(Dnp)-P in dimethyl sulfoxide to the buffer in wells of a 96-well black plastic plate (Corning Life Sciences, High Wycombe, UK), and the release of fluorescence on hydrolysis of the substrate was monitored continuously at 20 °C using a FLUOstar Omega (BMG Labtech GmbH, Offenburg, Germany) with λex at 340 nm and λem set at 430 nm. For studying the effect of dipeptide inhibitors, the enzyme in the assay buffer was pre-incubated with inhibitor for 10 min prior to the addition of the substrate. IC50 values were determined using the non-linear regression curve-fitting software [log(inhibitor) vs. response] of GraphPad Prism 7.01 (GraphPad Software, San Diego, CA, USA). The coefficient of determination (R^2) values for the regression model ranged from 0.9852 to 0.9629. Ki values were obtained using the Cheng–Prusoff equation and a substrate Km of 14.24 µM, obtained using non-linear regression curve-fitting software (Michaelis–Menten) of GraphPad Prism 7.01. The R^2 for the Km determination was 0.9787 [31].

The mark [1] stands for this setting: from IC50 by Cheng–Prusoff equation, substrate Km 14.24 µM.

On to `CC[C@H](C)[C@H](N)C(=O)N[C@@H](Cc1c[nH]c2ccccc12)C(=O)O` [IW], for which the IC50 is 0.7 µM in the assay on ACE and 340 µM at AnCE. The Ki at nACE was 59.6 µM; on cACE, 1.6 µM; at AnCE (setting [1]) it was 80 µM.
`NC(N)=NCCC[C@H](N)C(=O)N[C@@H](Cc1c[nH]c2ccccc12)C(=O)O` [RW] (H-Arg-Trp-OH): the 50% inhibitory concentration (IC50) at AnCE turned out to be 880 µM. The Ki at AnCE (values restated in µM in the text) came out at 200 µM.
Turning to `CC(C)[C@H](N)C(=O)N[C@@H](Cc1c[nH]c2ccccc12)C(=O)O` [VW] (H-Val-Trp-OH), the Ki was 152 µM at nACE, 2.1 µM at cACE and 170 µM on AnCE (setting [1]). The same compound had a concentration for half-maximal inhibition (IC50) at AnCE of 780 µM.
`N=C(N)NCCC[C@H](NC(=O)[C@@H](N)Cc1c[nH]c2ccccc12)C(=O)O` [WR] (H-Trp-Arg-OH): the “inhibition of cACE (in words)” value in the assay on cACE is listed as “poor inhibitors”. Moreover, the IC50 against AnCE turned out to be 3780 µM. In addition, the Ki at AnCE (setting [1]) was 840 µM.
As for `N[C@@H](Cc1ccc(O)cc1)C(=O)N[C@@H](Cc1c[nH]c2ccccc12)C(=O)O` [YW] (H-Tyr-Trp-OH), the “inhibition of cACE (in words)” value with cACE is “poor inhibitors”. The compound further gave an IC50 on AnCE of 3400 µM. The same compound had an inhibitory constant (Ki) at AnCE (setting [1]) of 750 µM.

A word on the IC50: it is the concentration needed to halve the response being measured. What is called Ki is a measure of affinity in units of concentration, obtained from inhibition or displacement.
